“Also recorded” adds a separate entry of the source.
Experiments:
[1] = tested on: pathologically altered human aortas; assay: Ex vivo test on the aorta model (stent implanted in the explant, 2 weeks culture, PCR); assay type: cell-based
From the text: The ex vivo test on pathologically altered human arteries and, in particular, on human aortas is a novel test model that makes it possible to better predict the clinical efficacy of biologically active coatings of medical implants such as stents or balloon catheters. Until now, it was not possible to perform this prediction in a reliable manner. […] These failures have engendered doubt in the benefit of the standard animal models, since, despite additional serial examinations and comprehensive screenings, the clinical efficacy of a new substance is uncertain even though preclinical results were positive. Until now there was no test model available that investigated the antiproliferative effect of new drugs in the complex biological environment of an arteriosclerotic vessel. On the basis of this novel test model, it is now possible to obtain mechanistic insights into the origin of a restenosis after stent implantation and to develop a therapy specific for the cause thereof
The special test procedure is based on the use of human pathological vascular tissue obtained directly within one hour after operation (vasectomy). Immediately after removal, the vascular preparations are placed in a sterile phosphate buffer (PBS) at room temperature, and are transported. […]

[2] = cited from earlier work
[3] = cited from earlier work; remark: listed apart in the source

Compound	proliferation of smooth muscle cells (proliferation markers KI-67 and PCNA) ([1]; Pyr3 eluted from polymeric stent coating (embodiment 1) compared with uncoated 316L stent, after stent implantation with overexpansion, FIGS. 2 and 3)	total number of smooth muscle cells (expression of hSMTN and hAlpha-actin) ([1]; stent with Pyr3 (embodiment 1) compared with uncoated 316L stent, after stent implantation, FIG. 2)	antirestenotic effect / reduction of restenosis in clinical practice [2]	efficacy in the experimental animal model [3]
CCOC(=O)c1cnn(-c2ccc(NC(=O)C(Cl)=C(Cl)Cl)cc2)c1C(F)(F)F [Pyr3, ethyl-1-(4-(2,3,3-trichloroacrylamide)phenyl)-5-(trifluoromethyl)-1H-pyrazole-4-carboxylate]	can be inhibited; also recorded: lower overall proliferation	does not lead to the otherwise common drop in total number of smooth muscle cells	–	–
CC(=O)Oc1ccccc1C(=O)O [aspirin]	–	–	did not reduce restenosis	good efficacy
CC[C@@H]1/C=C(\C)C[C@H](C)C[C@H](OC)[C@H]2O[C@@](O)(C(=O)C(=O)N3CCCC[C@H]3C(=O)O[C@H](/C(C)=C/[C@@H]3CC[C@H](Cl)[C@H](OC)C3)[C@H](C)[C@@H](O)CC1=O)[C@H](C)C[C@@H]2OC [pimecrolimus]	–	–	did not reduce restenosis	good efficacy
heparin	–	–	did not reduce restenosis	good efficacy

Reference: patent US20120239140A1, “MEDICAL PRODUCT COMPRISING AN ACTIVE COATING” (priority 2011, published 2012)
